Assay in all cases: NCI-60 cell line screen, 48 h
The test system of experiment [1] is A498 renal.
Experiment [2] concerns TK-10 renal.
Experiment [3] has as its system MDA-MB-435.
In experiment [4] the test system is PC-3 prostate.
Experiment [5] relates to HOP-92 NSCLC.
The test system of experiment [6] is NCI-H522 lung.
Experiment [7] has as its system M14 melanoma.
The subject of experiment [8] is DU-145 prostate.
The subject of experiment [9] is MDA-N.
In experiment [10] the test system is BT-549 breast.

Each structure is given as a SMILES string. “And” between values parts separate entries of the source, which are not always exact repeats. Equal entries are not always repeated.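 1) Cells in 96-well plates. 2) Compound, 48 h, 5 concentrations. 3) Linear interpolation between surrounding doses. 4) Unreached endpoint = highest concentration. GI50: concentration for 50% inhibition of growth. TGI marks complete inhibition of growth.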

Take `O=[N+]([O-])c1ccc(N/N=C/CC(O)(C(F)(F)F)C(F)(F)F)c([N+](=O)[O-])c1`: the TGI in experiment [1] was above 10 µM; in [2], above 10 µM; in [3] it was above 10 µM; in [4], above 10 µM; in experiment [5], 6.59 µM; in [6] it was above 10 µM. Also, the TGI in experiment [7], in experiment [8] and in experiment [9] was above 10 µM each time.
Consider `CCOC(=O)c1c(-c2ccc(Cl)cc2)c(C#N)c(=S)n(C2OC(COC(C)=O)C(OC(C)=O)C(OC(C)=O)C2OC(C)=O)c1-c1ccccc1` (stereo unspecified), for which the TGI in [2] is above 100 µM; in experiment [3], above 100 µM; in experiment [4], above 100 µM; in experiment [5] it was 81.7 µM; in experiment [10] it was above 100 µM; in experiment [7], above 100 µM. For the same compound, the TGI in experiment [8] and in experiment [9] was above 100 µM each time.
For the compound `Cc1nc2c(o1)C(=Nc1ccccc1)c1ccccc1C2=O`, the TGI was 54.4 µM in [1]; 69.9 µM in [2]; 25.9 µM in [5]; 15.8 µM in [6]; 21.4 µM in experiment [7].
On to `O=C(NC1CCCCC1)c1cc2ccccc2cc1O`, for which the TGI in experiment [1] was 78.3 µM; in [2], above 100 µM; in [3], above 100 µM; in experiment [4], 99 µM; in experiment [5] it was 65.1 µM; in [7], 53.3 µM. In experiment [8], this compound returned a TGI above 100 µM.
Consider `CN(CCO)CCCC1COc2ccccc2O1` (stereo unspecified), for which the TGI in experiment [2], in [4], in experiment [5], in experiment [10], in [6] and in experiment [7] was above 100 µM throughout. Moreover, the TGI in [8] and in experiment [9] was above 100 µM throughout.
Take `O=c1cc(NNc2cccc(F)c2)[nH]c(=O)[nH]1`: the TGI in experiment [1] was above 100 µM; in [2], 27.2 µM; in experiment [4] it was above 100 µM; in experiment [5] it was 30 µM; in [10], above 100 µM; in experiment [6], 35.3 µM. Besides, the TGI is 33.9 µM in [7], above 100 µM in [8] and above 100 µM in [9].
With `O=c1[nH]c2ccccc2c(O)c1/C=N/C(=S)NCc1ccccc1`, the TGI in experiment [2], in [3], in [4], in experiment [5], in experiment [10] and in experiment [7] was above 100 µM throughout. Moreover, the TGI in experiment [8] and in experiment [9] was above 100 µM in each case.
On to `CCn1c(SC(C)C(=O)c2c(C)n(C)n(-c3ccccc3)c2=O)nc2ccccc2c1=O` (stereo unspecified), for which the TGI in experiment [1], in experiment [2], in experiment [5], in experiment [6] and in experiment [7] was above 100 µM each time.
For the compound `NC(=O)c1ccccc1NC(=O)C(=O)Cc1nc2ccccc2[nH]c1=O`, the TGI in experiment [1], in experiment [2], in experiment [5], in experiment [6] and in experiment [7] was above 100 µM throughout.
For `Nc1ccccc1.[C-]#[O+].[C-]#[O+].[C-]#[O+].[C-]#[O+].[C-]#[O+].[Cr]`, the GI50 in experiment [1] was 3 µM; in [2], 4.83 µM; in experiment [3] it was 3.67 µM; in [4], 5.87 µM; in [6], 2.94 µM; in experiment [7] it was 3.44 µM. Moreover, the GI50 in experiment [8] is above 10 µM; in experiment [9], 3.53 µM. Moreover, the TGI in [1] was 8.28 µM; in [2], above 10 µM; in [3], above 10 µM; in experiment [4] it was above 10 µM; in experiment [6], above 10 µM; in [7], above 10 µM. Also, the TGI in experiment [8] and in experiment [9] was above 10 µM throughout.
For the compound `CCN(CC)c1ccc(N=Nc2ccc([N+](=O)[O-])cc2OC(=O)/C=C/c2ccccc2)c(OC(=O)/C=C/c2ccccc2)c1`, the TGI in experiment [1] is above 58.4 µM; in [2], above 100 µM; in experiment [5], above 100 µM; in experiment [6], above 100 µM; in experiment [7], above 100 µM.
Consider `COc1ccc2c(c1)C/C(=C\c1cccc3ccccc13)C2=O`, for which the TGI in experiment [1], in experiment [2], in experiment [4], in experiment [10] and in experiment [7] was above 100 µM in each case.
For `CCOC(=O)c1c(Br)c(-c2ccc(OC)cc2)c(Br)n1C`, the TGI was 49.6 µM in experiment [1]; 94 µM in [2]; 7.71 µM and 29.3 µM in [3]; above 100 µM in [4]; 14.1 µM in experiment [5]; above 100 µM in [10]. For the same compound, the TGI in [6] was 83.9 µM; in [7], above 100 µM; in experiment [8], above 100 µM. For the same compound, the GI50 in [3] is 4.47 µM; in experiment [5] it was 0.0721 µM.
Turning to `CC1(C)C(CCO)CC1n1cc(I)c(=O)[nH]c1=O` (stereo unspecified), the TGI in [1], in experiment [2], in [3], in experiment [4], in experiment [5] and in [7] was above 100 µM throughout. In addition, the TGI in experiment [8] and in experiment [9] was above 100 µM in each case.
As to `COc1cc2cc(C(=O)N3CC(CCl)c4c3cc(NC(=O)OCc3ccc([N+](=O)[O-])cc3)c3ccccc43)[nH]c2c(OC)c1OC` (stereo unspecified), the TGI in [3] is above 100 µM; in [4], above 100 µM; in [5] it was above 90.5 µM; in experiment [10], above 100 µM; in [6], above 76.7 µM; in [7] it was above 100 µM. In addition, the TGI in experiment [8] was 18 µM; in experiment [9], above 100 µM.
Take `COc1cc(C2SC(C)C(=O)N2c2ccc(-c3csc(NS(=O)(=O)c4ccc(Cl)c(OC)c4)n3)cc2)ccc1O` (stereo unspecified): the TGI in experiment [1] is above 100 µM; in experiment [2], above 100 µM; in experiment [3] it was above 100 µM; in experiment [4] it was above 100 µM; in experiment [5] it was above 100 µM; in experiment [6], 47.1 µM. The TGI in experiment [7], in experiment [8] and in [9] was above 100 µM each time.

Values taken from PubChem BioAssay (NCI).
